The results in this text go back to PubChem BioAssay (NCI).

“And” between values parts separate entries of the source, which are not always exact repeats. Equal values may be shown once.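 Where inhibition never reached the appropriate level, the endpoint shown equals the highest concentration tested. Otherwise, values were interpolated linearly from a five-concentration, 48-hour dose response in 96-well plates. GI50 marks 50% less growth. TGI denotes the concentration required for complete inhibition of growth.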

Among the test systems are A549 NSCLC; ACHN renal; CAKI-1 renal; DU-145 prostate; EKVX NSCLC; HCT-15 colon; KM12 colon; M14 melanoma; MCF7 breast; MDA-MB-231 breast; MDA-N; NCI-H23 lung; OVCAR-4 ovarian; SF-268 CNS; SK-OV-3 ovarian; SNB-19 CNS; TK-10 renal; UACC-257 melanoma; UACC-62 melanoma.
Assay in all cases: inhibition of tumour cell growth, NCI panel, 48 h

On to `CO[C@@]12C[C@@H](C)[C@]34O[C@H]3C[C@]3(C)O[C@]43CC1=C(C)C(=O)O2`, for which the TGI in the assay on A549 NSCLC, in the assay on ACHN renal, with CAKI-1 renal, with DU-145 prostate, in the assay on EKVX NSCLC and in the assay on HCT-15 colon was more than 100 µM throughout. The TGI in the assay on KM12 colon, in the assay with M14 melanoma, with MCF7 breast, in the assay on MDA-MB-231 breast, in the assay on MDA-N and with NCI-H23 lung was more than 100 µM throughout. Moreover, the TGI with OVCAR-4 ovarian, in the assay with SF-268 CNS, with SK-OV-3 ovarian, in the assay on SNB-19 CNS, in the assay on TK-10 renal and in the assay with UACC-257 melanoma was more than 100 µM throughout. Also, in the assay with UACC-62 melanoma, the TGI is more than 100 µM.
For the compound `CC(NC1=CC(=O)c2cccnc2C1=O)C(O)c1ccccc1` (centres undefined), the TGI in the assay with A549 NSCLC was found to be 5.13 µM; in the assay on ACHN renal, 14.5 µM; with CAKI-1 renal, 7.23 µM; in the assay with DU-145 prostate, 3.65 µM; in the assay on EKVX NSCLC it was 20.1 µM; in the assay with HCT-15 colon it was 8.08 µM. Also, the TGI with KM12 colon is 27.8 µM; in the assay on M14 melanoma, 3.12 µM; in the assay on MCF7 breast, 3.04 µM; with MDA-MB-231 breast, more than 46.3 µM; in the assay with MDA-N, 1.3 µM; in the assay on NCI-H23 lung it was 3.01 µM. Also, the TGI stood at 11.1 µM in the assay with OVCAR-4 ovarian; 20.8 µM with SF-268 CNS; 23.4 µM in the assay on SK-OV-3 ovarian; 5.66 µM in the assay on SNB-19 CNS; 28.1 µM in the assay on TK-10 renal; 2.84 µM with UACC-257 melanoma. Also, the TGI in the assay on UACC-62 melanoma is 3.1 µM.
As to `CN(C)C(=S)C(Cl)(c1ccccc1)c1ccccc1`, the TGI is more than 100 µM with A549 NSCLC; more than 100 µM with ACHN renal; more than 100 µM in the assay with CAKI-1 renal; more than 100 µM in the assay on DU-145 prostate; 75 µM in the assay with EKVX NSCLC; more than 100 µM in the assay on HCT-15 colon. In addition, the TGI with KM12 colon, in the assay on M14 melanoma, in the assay on MCF7 breast, in the assay with MDA-MB-231 breast, in the assay with MDA-N and with NCI-H23 lung was more than 100 µM throughout. The TGI in the assay on OVCAR-4 ovarian, with SF-268 CNS, in the assay with SK-OV-3 ovarian, in the assay on SNB-19 CNS, in the assay on TK-10 renal and with UACC-257 melanoma was more than 100 µM throughout. The TGI in the assay on UACC-62 melanoma is more than 100 µM.
For `CN(C)CCCNC(=O)c1cc(NS(=O)(=O)c2ccc3c(c2)C(=O)c2ccccc2C3=O)cn1C`, the TGI in the assay on A549 NSCLC is more than 100 µM; with ACHN renal, 49.5 µM; in the assay on CAKI-1 renal, more than 100 µM; in the assay on DU-145 prostate, 76.3 µM; with EKVX NSCLC, more than 100 µM; with HCT-15 colon, more than 100 µM. For the same compound, the TGI came out at 41.1 µM in the assay with KM12 colon; 62.8 µM in the assay on M14 melanoma; 46.4 µM in the assay on MCF7 breast; 85.5 µM with MDA-MB-231 breast; 60 µM in the assay on MDA-N; 64.7 µM in the assay with NCI-H23 lung. Also, the TGI with OVCAR-4 ovarian was 36.8 µM; in the assay with SF-268 CNS, 72.5 µM; in the assay on SK-OV-3 ovarian, more than 100 µM; in the assay with SNB-19 CNS, 39.6 µM; in the assay with TK-10 renal, 51.3 µM; with UACC-257 melanoma, 37.6 µM. The TGI with UACC-62 melanoma was determined as 41.4 µM.
Turning to `O=C(O)CCCNc1ncc2c(n1)-c1ccccc1OC2`, the TGI with A549 NSCLC, with ACHN renal, in the assay with CAKI-1 renal, in the assay with DU-145 prostate, with EKVX NSCLC and with HCT-15 colon was more than 100 µM each time. In addition, the TGI with KM12 colon, in the assay on M14 melanoma, with MCF7 breast, in the assay on MDA-MB-231 breast, in the assay on MDA-N and in the assay on NCI-H23 lung was more than 100 µM each time. Also, the TGI in the assay on OVCAR-4 ovarian, in the assay with SF-268 CNS, in the assay with SK-OV-3 ovarian, in the assay on SNB-19 CNS, in the assay with TK-10 renal and with UACC-257 melanoma was more than 100 µM in each case. In the assay on UACC-62 melanoma, this compound came in with a TGI of more than 100 µM.
With `O=S(=O)(O)c1ccc2c(N=Nc3ccc(S(=O)(=O)O)c4ccccc34)c(O)c(S(=O)(=O)O)cc2c1`, in the assay with A549 NSCLC, the GI50 is 28.7 µM and > 100 µM. For the same compound, the TGI in the assay on A549 NSCLC, in the assay with ACHN renal, with CAKI-1 renal, in the assay with DU-145 prostate, in the assay with EKVX NSCLC and in the assay with HCT-15 colon was more than 100 µM each time. Moreover, the TGI with KM12 colon, with M14 melanoma, with MCF7 breast, in the assay with MDA-MB-231 breast, with MDA-N and with NCI-H23 lung was more than 100 µM throughout. The TGI with OVCAR-4 ovarian, with SF-268 CNS, with SK-OV-3 ovarian, in the assay on SNB-19 CNS, in the assay on TK-10 renal and with UACC-257 melanoma was more than 100 µM in each case. Moreover, the TGI in the assay with UACC-62 melanoma was more than 100 µM.
Take `O=[N+]([O-])c1cc(-[n+]2cc([O-])on2)ccc1Cl`: the TGI in the assay on A549 NSCLC was more than 100 µM; in the assay on ACHN renal, 29.5 µM; in the assay on CAKI-1 renal it was 5.01 µM; with DU-145 prostate it was 30.5 µM; with EKVX NSCLC it was 37.8 µM; with HCT-15 colon it was 73.7 µM. Also, the TGI in the assay with KM12 colon turned out to be 54.9 µM; in the assay with M14 melanoma, 41.8 µM; with MCF7 breast, 43.3 µM; in the assay with MDA-MB-231 breast, 37.7 µM; in the assay on MDA-N it was 39.9 µM; in the assay on NCI-H23 lung, 26.6 µM. Moreover, the TGI in the assay with OVCAR-4 ovarian was 29.1 µM; with SF-268 CNS it was 78.3 µM; in the assay with SK-OV-3 ovarian, more than 100 µM; in the assay with SNB-19 CNS, 27.1 µM; in the assay on TK-10 renal, 67.2 µM; with UACC-257 melanoma, 27.5 µM. The same compound came in with a TGI in the assay with UACC-62 melanoma of 89.8 µM.
